Measured values from ChEMBL document CHEMBL3132769, “Fragment growing to retain or alter the selectivity of anchored kinase hinge-binding fragments” (Medchemcomm, 2014).

Experiments:
[1] = target: Mitogen-activated protein kinase kinase kinase kinase 4 (Homo sapiens) (UniProt O95819); experiment: Inhibition of human HGK catalytic domain expressed in baculovirus assessed as substrate phosphorylation using fluorescence-labelled peptides as substrate at 420 uM after 90 mins by microfluidic peptide phosphorylation assay
Chain of Mitogen-activated protein kinase kinase kinase kinase 4 (Homo sapiens) (O95819 2-1239 limits assumed): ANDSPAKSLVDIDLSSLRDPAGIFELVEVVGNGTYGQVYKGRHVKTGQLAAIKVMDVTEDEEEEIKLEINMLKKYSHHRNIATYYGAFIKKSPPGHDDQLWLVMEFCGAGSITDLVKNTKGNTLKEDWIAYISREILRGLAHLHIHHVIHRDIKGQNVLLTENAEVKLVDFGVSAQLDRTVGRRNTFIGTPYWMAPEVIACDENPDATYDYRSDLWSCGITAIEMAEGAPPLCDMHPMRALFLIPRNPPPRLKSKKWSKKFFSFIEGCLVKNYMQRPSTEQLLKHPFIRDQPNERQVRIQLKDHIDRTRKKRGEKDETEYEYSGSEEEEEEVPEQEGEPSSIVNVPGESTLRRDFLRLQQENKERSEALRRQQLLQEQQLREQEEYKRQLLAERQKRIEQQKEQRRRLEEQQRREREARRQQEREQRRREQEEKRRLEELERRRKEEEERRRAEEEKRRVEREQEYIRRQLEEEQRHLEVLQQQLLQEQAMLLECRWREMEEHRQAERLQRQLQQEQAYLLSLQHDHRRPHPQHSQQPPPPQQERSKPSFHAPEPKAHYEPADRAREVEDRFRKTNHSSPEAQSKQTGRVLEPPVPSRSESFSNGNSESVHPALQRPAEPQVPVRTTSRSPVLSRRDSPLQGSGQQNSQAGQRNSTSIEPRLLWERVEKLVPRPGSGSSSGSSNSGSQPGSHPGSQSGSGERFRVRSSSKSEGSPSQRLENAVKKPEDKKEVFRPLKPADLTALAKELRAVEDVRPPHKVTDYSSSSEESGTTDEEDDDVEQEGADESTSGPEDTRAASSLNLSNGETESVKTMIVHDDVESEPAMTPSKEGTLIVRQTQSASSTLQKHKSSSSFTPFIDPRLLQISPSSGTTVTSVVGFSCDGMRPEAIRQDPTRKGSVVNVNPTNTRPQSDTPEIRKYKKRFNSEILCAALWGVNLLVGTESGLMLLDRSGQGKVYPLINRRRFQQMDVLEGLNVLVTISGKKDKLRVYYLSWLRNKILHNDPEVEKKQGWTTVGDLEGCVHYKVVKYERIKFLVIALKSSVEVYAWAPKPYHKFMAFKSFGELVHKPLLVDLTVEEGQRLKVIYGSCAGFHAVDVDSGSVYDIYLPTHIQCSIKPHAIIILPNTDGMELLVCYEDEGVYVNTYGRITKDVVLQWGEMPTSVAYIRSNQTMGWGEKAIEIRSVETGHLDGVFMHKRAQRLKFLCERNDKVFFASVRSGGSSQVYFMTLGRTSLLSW

[2] = target: T1, Testis-specific serine/threonine-protein kinase 1 (Homo sapiens) (UniProt Q9BXA7); experiment: Inhibition of human full length TSSK1 expressed in baculovirus assessed as substrate phosphorylation using fluorescence-labelled peptides as substrate at 2 uM after 90 mins by microfluidic peptide phosphorylation assay
T1 sequence (whole entry): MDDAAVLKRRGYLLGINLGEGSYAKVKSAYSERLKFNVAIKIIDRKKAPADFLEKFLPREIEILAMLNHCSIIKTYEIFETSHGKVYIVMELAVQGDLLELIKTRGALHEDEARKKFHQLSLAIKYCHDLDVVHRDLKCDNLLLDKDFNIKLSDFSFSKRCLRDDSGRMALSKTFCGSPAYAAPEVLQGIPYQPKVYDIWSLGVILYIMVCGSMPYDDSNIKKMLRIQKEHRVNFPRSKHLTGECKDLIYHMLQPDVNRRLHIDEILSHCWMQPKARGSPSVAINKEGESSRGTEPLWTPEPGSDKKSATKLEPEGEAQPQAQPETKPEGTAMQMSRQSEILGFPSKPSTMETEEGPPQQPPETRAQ

[3] = target: T2, Protein kinase C epsilon type (Homo sapiens) (UniProt Q02156); experiment: Inhibition of human truncated PKC epsilon expressed in baculovirus assessed as substrate phosphorylation using fluorescence-labelled peptides as substrate at 95 uM after 90 mins by microfluidic peptide phosphorylation assay
T2 sequence (whole entry): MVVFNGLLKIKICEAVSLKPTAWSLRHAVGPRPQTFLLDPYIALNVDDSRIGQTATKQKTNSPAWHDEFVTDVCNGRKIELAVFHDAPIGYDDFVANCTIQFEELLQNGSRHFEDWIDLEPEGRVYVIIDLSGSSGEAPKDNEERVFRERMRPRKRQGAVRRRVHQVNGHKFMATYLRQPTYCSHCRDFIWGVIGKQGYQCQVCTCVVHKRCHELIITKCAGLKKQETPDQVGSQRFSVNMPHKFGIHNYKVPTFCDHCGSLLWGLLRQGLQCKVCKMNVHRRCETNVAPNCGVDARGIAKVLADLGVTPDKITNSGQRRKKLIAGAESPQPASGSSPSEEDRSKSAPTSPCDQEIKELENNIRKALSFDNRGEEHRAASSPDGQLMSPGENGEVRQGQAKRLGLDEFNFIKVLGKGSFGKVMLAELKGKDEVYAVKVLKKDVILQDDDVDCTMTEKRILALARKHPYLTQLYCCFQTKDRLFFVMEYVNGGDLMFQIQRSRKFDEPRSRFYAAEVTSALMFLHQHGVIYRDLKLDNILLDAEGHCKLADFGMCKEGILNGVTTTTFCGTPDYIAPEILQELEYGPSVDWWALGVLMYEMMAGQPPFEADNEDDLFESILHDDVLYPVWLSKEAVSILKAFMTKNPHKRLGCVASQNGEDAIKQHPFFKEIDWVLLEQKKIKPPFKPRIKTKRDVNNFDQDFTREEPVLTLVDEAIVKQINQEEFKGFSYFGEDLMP

[4] = target: T3, Calcium/calmodulin-dependent protein kinase type IV (Homo sapiens) (UniProt Q16566); experiment: Inhibition of human full length CAMK4 expressed in baculovirus assessed as substrate phosphorylation using fluorescence-labelled peptides as substrate at 95 uM after 90 mins by microfluidic peptide phosphorylation assay
T3 sequence (whole entry): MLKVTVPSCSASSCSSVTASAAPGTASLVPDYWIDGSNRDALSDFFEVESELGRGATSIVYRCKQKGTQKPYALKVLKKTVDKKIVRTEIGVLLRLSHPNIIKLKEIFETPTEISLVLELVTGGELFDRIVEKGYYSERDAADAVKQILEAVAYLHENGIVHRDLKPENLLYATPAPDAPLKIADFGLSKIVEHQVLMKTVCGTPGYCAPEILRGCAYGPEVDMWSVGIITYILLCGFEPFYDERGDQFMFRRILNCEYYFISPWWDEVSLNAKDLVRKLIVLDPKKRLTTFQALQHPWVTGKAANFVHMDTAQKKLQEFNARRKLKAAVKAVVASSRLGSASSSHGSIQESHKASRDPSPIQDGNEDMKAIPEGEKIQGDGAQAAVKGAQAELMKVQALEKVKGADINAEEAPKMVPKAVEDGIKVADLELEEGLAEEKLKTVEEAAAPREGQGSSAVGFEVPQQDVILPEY

[5] = target: Hepatocyte growth factor receptor (Homo sapiens) (UniProt P08581); experiment: Inhibition of human MET cytoplasmic domain expressed in baculovirus assessed as substrate phosphorylation using fluorescence-labelled peptides as substrate at […] after 90 mins by microfluidic peptide phosphorylation assay
Chain of Hepatocyte growth factor receptor (Homo sapiens) (P08581 whole entry, the tested form may be a part): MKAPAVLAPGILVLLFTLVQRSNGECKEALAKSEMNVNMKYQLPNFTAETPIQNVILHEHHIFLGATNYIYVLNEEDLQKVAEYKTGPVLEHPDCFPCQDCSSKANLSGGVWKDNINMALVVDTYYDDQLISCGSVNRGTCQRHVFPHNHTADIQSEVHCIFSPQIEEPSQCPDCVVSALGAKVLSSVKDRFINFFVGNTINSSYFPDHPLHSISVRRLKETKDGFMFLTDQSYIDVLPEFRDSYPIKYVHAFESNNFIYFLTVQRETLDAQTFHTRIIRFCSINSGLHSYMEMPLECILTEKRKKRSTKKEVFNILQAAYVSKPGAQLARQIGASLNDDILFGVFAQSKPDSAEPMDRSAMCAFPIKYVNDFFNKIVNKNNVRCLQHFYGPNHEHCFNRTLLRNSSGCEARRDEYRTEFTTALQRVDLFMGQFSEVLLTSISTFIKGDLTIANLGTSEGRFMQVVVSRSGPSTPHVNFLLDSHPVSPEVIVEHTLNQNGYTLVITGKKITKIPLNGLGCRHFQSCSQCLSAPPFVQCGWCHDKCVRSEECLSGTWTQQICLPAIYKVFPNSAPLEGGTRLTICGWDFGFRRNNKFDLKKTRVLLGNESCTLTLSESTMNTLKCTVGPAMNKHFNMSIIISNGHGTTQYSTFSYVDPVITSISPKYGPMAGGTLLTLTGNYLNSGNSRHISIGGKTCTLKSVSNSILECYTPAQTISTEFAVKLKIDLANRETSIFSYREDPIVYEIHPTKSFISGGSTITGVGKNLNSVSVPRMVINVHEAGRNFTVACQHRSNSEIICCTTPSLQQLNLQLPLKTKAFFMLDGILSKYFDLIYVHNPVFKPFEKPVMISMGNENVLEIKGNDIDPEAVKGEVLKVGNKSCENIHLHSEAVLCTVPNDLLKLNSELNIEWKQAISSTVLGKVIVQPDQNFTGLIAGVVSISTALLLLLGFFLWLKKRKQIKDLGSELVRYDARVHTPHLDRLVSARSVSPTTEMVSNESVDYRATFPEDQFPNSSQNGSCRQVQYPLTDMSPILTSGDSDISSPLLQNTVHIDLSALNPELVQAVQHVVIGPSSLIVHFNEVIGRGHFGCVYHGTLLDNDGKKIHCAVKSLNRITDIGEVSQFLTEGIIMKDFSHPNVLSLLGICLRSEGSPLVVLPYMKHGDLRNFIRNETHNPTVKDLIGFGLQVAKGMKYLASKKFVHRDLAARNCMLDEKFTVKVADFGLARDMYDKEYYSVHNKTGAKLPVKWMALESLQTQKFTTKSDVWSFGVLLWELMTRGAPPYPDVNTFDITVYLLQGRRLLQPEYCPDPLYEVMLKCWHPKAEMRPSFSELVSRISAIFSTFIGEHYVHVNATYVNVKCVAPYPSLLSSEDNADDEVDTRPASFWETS

[6] = target: T4, Cytoplasmic tyrosine-protein kinase BMX (Homo sapiens) (UniProt P51813); experiment: Inhibition of human full length BMX expressed in baculovirus assessed as substrate phosphorylation using fluorescence-labelled peptides as substrate at 0.06 uM after 90 mins by microfluidic peptide phosphorylation assay
T4 sequence (whole entry): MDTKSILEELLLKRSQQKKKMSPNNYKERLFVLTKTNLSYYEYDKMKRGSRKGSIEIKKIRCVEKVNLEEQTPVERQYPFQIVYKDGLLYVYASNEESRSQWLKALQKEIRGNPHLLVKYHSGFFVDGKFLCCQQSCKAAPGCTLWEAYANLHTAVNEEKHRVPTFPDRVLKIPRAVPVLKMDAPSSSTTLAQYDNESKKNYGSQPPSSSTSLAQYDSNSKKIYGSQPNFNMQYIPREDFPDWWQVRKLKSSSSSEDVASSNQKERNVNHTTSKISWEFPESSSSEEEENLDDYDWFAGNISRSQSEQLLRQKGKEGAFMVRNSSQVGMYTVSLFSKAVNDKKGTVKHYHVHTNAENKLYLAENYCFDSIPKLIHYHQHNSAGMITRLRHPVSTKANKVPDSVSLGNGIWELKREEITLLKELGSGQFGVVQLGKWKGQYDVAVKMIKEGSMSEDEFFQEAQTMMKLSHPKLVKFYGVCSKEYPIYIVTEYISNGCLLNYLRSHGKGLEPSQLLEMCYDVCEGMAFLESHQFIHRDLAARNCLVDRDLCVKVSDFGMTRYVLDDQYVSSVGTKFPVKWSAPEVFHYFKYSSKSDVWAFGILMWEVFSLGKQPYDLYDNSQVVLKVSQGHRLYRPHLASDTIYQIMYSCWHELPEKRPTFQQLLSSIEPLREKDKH

[7] = target: MAP/microtubule affinity-regulating kinase 3 (Homo sapiens) (UniProt P27448); experiment: Inhibition of human full length c-TAK1 expressed in Escherichia coli cell assessed as substrate phosphorylation using fluorescence-labelled peptides as substrate at 8 uM after 90 mins by microfluidic peptide phosphorylation assay
Chain of MAP/microtubule affinity-regulating kinase 3 (Homo sapiens) (P27448 whole entry, looked up, the tested form may be a part): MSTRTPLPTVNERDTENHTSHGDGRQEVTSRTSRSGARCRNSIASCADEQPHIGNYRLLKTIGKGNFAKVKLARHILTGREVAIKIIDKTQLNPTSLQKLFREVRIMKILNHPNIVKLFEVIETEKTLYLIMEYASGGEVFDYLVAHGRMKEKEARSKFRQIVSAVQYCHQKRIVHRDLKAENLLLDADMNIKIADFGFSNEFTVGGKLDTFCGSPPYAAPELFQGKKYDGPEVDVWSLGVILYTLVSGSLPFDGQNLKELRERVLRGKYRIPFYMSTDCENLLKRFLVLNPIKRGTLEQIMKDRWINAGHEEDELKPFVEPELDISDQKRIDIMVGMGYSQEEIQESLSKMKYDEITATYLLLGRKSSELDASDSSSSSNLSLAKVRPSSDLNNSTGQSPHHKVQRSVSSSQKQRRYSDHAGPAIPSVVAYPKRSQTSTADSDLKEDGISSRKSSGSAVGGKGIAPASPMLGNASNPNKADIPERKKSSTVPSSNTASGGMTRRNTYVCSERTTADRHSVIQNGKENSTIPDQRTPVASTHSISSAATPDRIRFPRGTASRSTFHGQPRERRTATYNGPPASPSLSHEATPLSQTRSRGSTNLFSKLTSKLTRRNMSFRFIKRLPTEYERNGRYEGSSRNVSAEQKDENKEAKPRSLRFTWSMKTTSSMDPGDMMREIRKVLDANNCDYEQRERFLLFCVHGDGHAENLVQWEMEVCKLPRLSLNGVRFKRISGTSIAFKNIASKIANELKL

[8] = target: Serine/threonine-protein kinase PAK 2 (Homo sapiens) (UniProt Q13177); experiment: Inhibition of human truncated PAK2 expressed in Escherichia coli cell assessed as substrate phosphorylation using fluorescence-labelled peptides as substrate at 70 uM after 90 mins by microfluidic peptide phosphorylation assay
Chain of Serine/threonine-protein kinase PAK 2 (Homo sapiens) (Q13177 whole entry, the tested form may be a part): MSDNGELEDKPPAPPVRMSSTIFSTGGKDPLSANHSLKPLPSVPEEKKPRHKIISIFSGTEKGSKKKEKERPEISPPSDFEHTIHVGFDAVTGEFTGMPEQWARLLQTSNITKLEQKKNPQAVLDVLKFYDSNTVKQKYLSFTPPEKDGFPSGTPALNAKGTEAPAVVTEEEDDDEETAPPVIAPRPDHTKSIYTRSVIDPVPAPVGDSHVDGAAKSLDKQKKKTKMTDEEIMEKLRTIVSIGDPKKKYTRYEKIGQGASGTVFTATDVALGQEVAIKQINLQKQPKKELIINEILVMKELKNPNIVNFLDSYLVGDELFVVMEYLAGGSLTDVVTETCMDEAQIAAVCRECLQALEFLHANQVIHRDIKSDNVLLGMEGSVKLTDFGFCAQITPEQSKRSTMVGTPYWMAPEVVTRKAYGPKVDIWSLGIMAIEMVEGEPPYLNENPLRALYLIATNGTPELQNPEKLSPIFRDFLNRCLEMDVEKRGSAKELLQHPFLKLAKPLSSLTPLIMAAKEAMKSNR

Compound `c1nc(N2CCOCC2)c2nc[nH]c2n1` has an inhibition [1] of 78.5%.

Compound `NC1CCN(c2ncnc3[nH]ccc23)CC1` has an inhibition [2] of 0%.

Work on `NCCc1ccc(-c2ncnc3[nH]cnc23)cc1` yielded an inhibition [3] of 49% and an inhibition [4] of 85%.

`COC(=O)c1cnc(Nc2cnc(C#N)cn2)cc1NCC1CCNCC1` gave an inhibition [5] of 2.5%.

With `NC1(Cc2ccc(Cl)cc2)CCN(c2ncnc3[nH]ccc23)CC1` the inhibition [6] was 0%.

In the case of `NCC1CCN(c2ncnc3[nH]ccc23)CC1`, the inhibition [7] is reported as 3%.

`CNCc1ccc(-c2ncnc3[nH]cnc23)cc1` gave an inhibition [8] of 26%.
